Consider 6 compounds from publication PMC9917214, “Assessment of the Permeability of 3,4-Methylenedioxypyrovalerone (MDPV) across the Caco-2 Monolayer for Estimation of Intestinal Absorption and Enantioselectivity” (International Journal of Molecular Sciences, 2023).

Series [1] relates to Caco-2 cells. Description: Cell viability assay (Neutral Red) in Caco-2 cells. The series is classed as cell-based, human. The following applies: 24 h, NR assay. The protocol:
MDPV cytotoxicity for the Caco-2 cell line was evaluated through the NR assay as previously described. This method provides an indication of the ability of lysosomes from viable cells to incorporate the NR dye. Caco-2 cells were seeded onto 96-well plates using a density of 60,000 cells/cm^2 to obtain confluent monolayers at the experimental day. The cells were incubated with the racemate of MDPV (0, 50, 150, 300, 500, 750, 1000, 1250, and 1500 µM) in fresh cell culture medium for 24 h. After the selected time interval, the cell culture medium was removed and replaced by a 50 µg/mL NR solution in HBSS (+/+) for 90 min, after which the NR solution was discarded, a lysis solution (50% EtOH/1% glacial acetic acid solution) was added, and the absorbance was read at 540 nm in a 96-well plate reader (PowerWaveX; Bio-Tek, Winooski, VT, USA). Additionally, 1% Triton X-100 was used as the positive control. Data were expressed as the percentage of cell viability relative to untreated cells. Data were obtained from four independent experiments performed in triplicate.

Series [2] can be described thus: Sample stability in HBSS (+/+) after 6 weeks of storage (UHPLC-UV peak area). The format is physicochemical. The protocol:
To evaluate stability, three different calibrators within the linear concentration range (10 (low), 100 (medium), and 500 (high) μM) were prepared and injected into the UHPLC. The remaining volume of each calibrator was divided into several vials and further stored at different temperatures (room temperature, 4 °C, −20 °C, and −80 °C) for 6 weeks (the same storage time of the samples obtained from the permeability assay with Caco-2 cells). After the storage period, samples were injected in duplicate and the obtained analyte peak area for each calibrator in each temperature was compared with the peak area obtained on day 0. Percentages of peak variation were calculated for each concentration.

Series [3] relates to Caco-2 monolayer. Kind of series: Permeability assay across the Caco-2 monolayer. The series is classed as in vitro ADME, human. The following applies: mean ± SD; for Mass Balance (%): 300 µM in HBSS (+/+), 300 min. The protocol:
For the in vitro permeability assay, Caco-2 cells were seeded on polycarbonate transwell inserts (12-well, 0.4 μm pores, Corning) using a density of 120,000 cells/cm^2 and cultivated for twenty-one days to allow the development of a differentiated monolayer. TEER was measured to control the integrity of the monolayers for twenty-one days.
After twenty-one days, the cells were incubated with 300 µM of each enantiomer of MDPV (in HBSS (+/+)). The assay was performed for both AP to BL and BL to AP directions. For AP to BL, exposure to the enantiomers was performed in the AP compartment (450 µL) while for BL to AP, exposure was made in the BL compartment (1250 µL). Right after the exposure (time 0), 50 µL was collected from each donor compartment (where exposure was performed). At suitable time intervals (40, 60, 90, 120, 180, 240, and 300 min), 600 µL (for AP to BL) and 200 µL (for BL to AL) of samples was collected from the BL and AP compartments (receiver compartments), respectively, and the same amount of HBSS (+/+) was added. In the last time point (300 min), 50 µL was also collected from the donor compartment. Collected samples were stored at −80 °C until the day of the UHPLC analysis. After 6 weeks of storage, samples were filtered with a 13 mm nylon syringe filter with […] pore size from Olimpeak™ and quantification was performed by the validated UHPLC-UV method. Results were obtained for three experiments, performed in duplicate.
Mass balance was calculated using the following equation [31]:(5) % Mass balance=100×QR,T+QD,f/QD,0 where QR,T is the total cumulative quantity in the receiver chamber (nmol), QD,f is the final quantity in the donor chamber (nmol), and QD,0 is the initial quantity in the donor chamber (nmol).
To calculate Papp, first, a determination had to be made to determine whether the results were under sink or non-sink conditions. […] If the ratio is higher, Papp has to be calculated considering a non-sink analysis.
For sink conditions, Papp was calculated in cm/s using the following equation [24]:(6) Papp=ΔQ/Δt×1/A×C0 where ΔQ/Δt is the amount of compound over time (mol/s), A is the surface area of the monolayer (cm^2), and C0 is the initial drug concentration on the donor side (mol/mL).
For non-sink conditions, a continuous change of the donor and receiver concentrations is considered, and the following equation must be used for each time interval to calculate the theoretical concentration at the receiver side:(7) CR(t)=(Qtot/VD+VR)+(CR(t−1)×f−Qtot/VD+VR)×e^−P×A×(1/VR+1/VD)×Δt where CR(t) is the theoretical concentration in the receiver side at time t (µM), Qtot is the total amount of drug in both chambers at time t (nmol), VR and VD are the volumes in the receiver and donor compartments (mL), respectively, CR(t-1) is the concentration in the receiver chamber at the previous time (µM), f is the dilution factor for the sample replacement, A is the surface area of the monolayer (cm^2), Δt is the time interval (s), and P is an initial approximation of the permeability coefficient calculated through Equation (6) (cm/s).
Papp values are determined by the minimization of the Sum of Squared Residuals (SSR):(8) SSR=∑[CR(t)theor−CR(t)exp]^2 where CR(t)theor is the theoretical concentration in the receiver side at time t calculated through Equation (7) and CR(t)exp is the experimental concentration in the receiver side at time t obtained directly from the quantification of the samples. […]

Series [4] has as its system Caco-2 cells. Particulars: racemates; cited from earlier work.
Series [5] concerns Caco-2 model. Also on record: method as in PMID 32234388. Particulars: cited from earlier work.

`CCCC(C(=O)c1ccc2c(c1)OCO2)N1CCCC1` (centres unmarked) [MDPV, 3,4-Methylenedioxypyrovalerone]: in series [1], the “Concentration from which a significant decrease in cell viability was observed” value is on record as ≥ 1000 µM. Moreover, the “Concentration with no statistically significant differences in cell viability” value in series [1] (tested up to 1500 µM) was ≤ 750 µM. Also, the “% peak area variation relative to day 0” value is recorded as 10.9% in series [2] (10 µM in HBSS (+/+), 6 weeks of storage at 4 °C); 11.0% in series [2] (10 µM in HBSS (+/+), 6 weeks of storage at RT); 12.5% in series [2] (10 µM in HBSS (+/+), 6 weeks of storage at −20 °C); 7.1% in series [2] (10 µM in HBSS (+/+), 6 weeks of storage at −80 °C); 9.1% in series [2] (100 µM in HBSS (+/+), 6 weeks of storage at 4 °C); 11.9% in series [2] (100 µM in HBSS (+/+), 6 weeks of storage at RT). Also, the “% peak area variation relative to day 0” value in series [2] (100 µM in HBSS (+/+), 6 weeks of storage at −20 °C) worked out at 10.4%; in series [2] (100 µM in HBSS (+/+), 6 weeks of storage at −80 °C) it was 8.6%; in series [2] (500 µM in HBSS (+/+), 6 weeks of storage at 4 °C) it was 3.4%; in series [2] (500 µM in HBSS (+/+), 6 weeks of storage at RT), 10.2%; in series [2] (500 µM in HBSS (+/+), 6 weeks of storage at −20 °C), 5.3%; in series [2] (500 µM in HBSS (+/+), 6 weeks of storage at −80 °C), 6.8%.

Take `CCC[C@@H](C(=O)c1ccc2c(c1)OCO2)N1CCCC1` [S-(-)-MDPV]: the “Mass Balance (%)” value is given as 100 ± 2% in series [3] (AP → BL direction) and 101 ± 4% in series [3] (BL → AP direction). In addition, the Papp in series [3] (AP → BL direction, sink conditions (Equation 6), 300 µM) is 1.8e-05 ± 1e-06 cm/s; in series [3] (BL → AP direction, non-sink conditions (Equation 7), 300 µM), 3.4 × 10^−5 ± 1 × 10^−6 ****^; # cm/s. Also, the “Efflux Ratio” value in series [3] (Papp (BL→AP)/Papp (AP→BL), 300 µM) is 1.8 ± 0.2.

With `CCCC(NC)C(=O)c1ccccc1` (centres unmarked) [pentedrone], the “Concentration range with no cytotoxic effects” value in series [4] is reported as “up to 2000 μM”.

Regarding `CNC(C)C(=O)c1ccc2c(c1)OCO2` (centres unmarked) [methylone], in series [4], the “Concentration range with no cytotoxic effects” value is given as “up to 2000 μM”.

In the case of `CN[C@@H](C)C(=O)c1ccc2c(c1)OCO2` [S-(-)-methylone], in series [5], the “Enantioselectivity in permeability (more permeable enantiomer)” value is “most permeable”.

With `CCC[C@@H](NC)C(=O)c1ccccc1` [R-(-)-pentedrone], in series [5], the “Enantioselectivity in permeability (more permeable enantiomer)” value is “most permeable”.
